Results reported in patent US10793530B2, “Benzylaminopyrazinylcyclopropanecarboxylic acids, pharmaceutical compositions and uses thereof” (Boehringer Ingelheim International GmbH, priority 2017, dated 2020).
In brackets after ≈: the same amount, converted by molar mass.

What was measured:
[1] = target: human GPR40 receptor (Homo sapiens, UniProt O14842); test: IP1 accumulation measurements using the IPOne assay system; assay type: cell-based; conditions: 1321N1 cells stably expressing human GPR40 receptor; stimulated 1 h at 37° C.
Procedure: IP1 is assayed according to the manufacturers description (Cisbio Bioassays, France). In brief, the assay is started by substitution of the culture medium by stimulation buffer (Hepes 10 mM, CaCl2 1 mM, MgCl2 0.5 mM, KCl 4.2 mM, NaCl 146 mM, glucose 5.5 mM and LiCl 50 mM, pH 7.4). Cells are stimulated for 1 h at 37° C., 5% CO2 by addition of the compounds that are diluted in stimulation buffer containing LiCl. Assays are stopped by adding HTRF-conjugates (IP1-d2 and Anti-IP1 cryptate Tb) and lysis buffer, provided by the manufacturer. After an incubation time of 1 h at room temperature plates are measured using an EnVision™, Perkin Elmer. The obtained fluorescence ratios at 665/615 […] are then used to calculate the pEC50 values using Assay Explorer 3.3 Software (Accelrys, Inc.) by interpolation using an IP1 reference curve and subsequent sigmoidal curve fitting allowing for a variable hill slope.

[2] = Aqueous solubility (buffer vs acetonitrile/water, LC-UV); assay type: physicochemical; conditions: kinetic from dmso stock, buffer pH 6.8, 24 h of shaking, DMSO concentration of 2.5%
Procedure: The aqueous solubility of the compounds of the invention is determined by comparing the amount dissolved in buffer to the amount in an acetonitrile/water (1/1) solution. Starting from a 10 mM DMSO stock solution aliquots are diluted with acetonitrile/water (1/1) or buffer, respectively. After 24 h of shaking, the solutions are filtrated and analyzed by LC-UV. The amount dissolved in buffer is compared to the amount in the acetonitrile solution. Solubility is usually being measured from 0.001 to 0.125 mg/mL at a DMSO concentration of 2.5%. If more than 90% of the compound is dissolved in buffer, the value is marked with “>”.

Chain of human GPR40 receptor (O14842 whole entry): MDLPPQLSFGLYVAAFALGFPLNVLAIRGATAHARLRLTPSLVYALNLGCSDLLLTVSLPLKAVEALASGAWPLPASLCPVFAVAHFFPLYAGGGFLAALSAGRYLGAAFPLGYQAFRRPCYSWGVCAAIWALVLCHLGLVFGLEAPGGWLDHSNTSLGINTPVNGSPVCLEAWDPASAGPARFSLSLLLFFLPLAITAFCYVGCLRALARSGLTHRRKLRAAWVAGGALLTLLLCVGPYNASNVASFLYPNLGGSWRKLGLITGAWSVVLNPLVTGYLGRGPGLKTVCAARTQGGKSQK

| EC50 [1] | solubility at 24 h [2] | SMILES |
| --- | --- | --- |
| 6 nM | 47 µg/mL (≈ 99.3 µM) | Cc1cc(-c2nnn(C)n2)cc(C)c1-c1ccc(F)c(CNc2cnc([C@H]3C[C@@H]3C(=O)O)cn2)c1 [Example 26] |
| 16 nM | 72 µg/mL (≈ 146 µM) | Cc1cc(OCCC(C)(C)O)cc(C)c1-c1ccc(F)c(CNc2cnc([C@H]3C[C@@H]3C(=O)O)cn2)c1 [Example 19] |
|  | < 1 µg/mL | Cc1cc(-c2nnn(C)n2)cc(C)c1-c1ccc(F)c2c1CC[C@H]2Oc1ccc([C@H]2C[C@@H]2C(=O)O)cc1 [Example 45 in WO 2013/178575, reference compound] |
